Measurements reported in PubChem BioAssay AID2060511 (Molecular Pharmacology Branch, DTP, NCI, 2025).

System: 422866-222-R5-J1-PDC spheroids with HUVEC/MSC, viability
Assay: Anticancer human tumor 422866-222-R5-J1-PDC patient-derived pancreatic adenocarcinoma cell line growth inhibition [GQUAD]
Details: for IC50: curve of first compound; for viability, T/C: stronger effect = lower value
Outline: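 Tumor cells were grown as complex spheroids with HUVEC endothelial cells and mesenchymal stem cells as stroma. G-quadruplex stabilizers were combined with targeted agents over half-log dilutions from near the clinical Cmax, or from 10 microM.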

[1] = second compound 0.0316 µM, first compound 0.0316 µM
[2] = second compound 0.0316 µM, first compound 0.1 µM
[3] = second compound 0.0316 µM, first compound 0.316 µM
[4] = second compound 0.0316 µM, first compound 1 µM
[5] = second compound 0.0316 µM, first compound 3.16 µM
[6] = second compound 0.0316 µM, first compound 10 µM
[7] = second compound 0.1 µM, first compound 0.0316 µM
[8] = second compound 0.1 µM, first compound 0.1 µM
[9] = second compound 0.1 µM, first compound 0.316 µM
[10] = second compound 0.1 µM, first compound 1 µM
[11] = second compound 0.1 µM, first compound 3.16 µM
[12] = second compound 0.1 µM, first compound 10 µM
[13] = second compound 0.316 µM, first compound 0.0316 µM
[14] = second compound 0.316 µM, first compound 0.1 µM
[15] = second compound 0.316 µM, first compound 0.316 µM
[16] = second compound 0.316 µM, first compound 1 µM
[17] = second compound 0.316 µM, first compound 3.16 µM
[18] = second compound 0.316 µM, first compound 10 µM
[19] = second compound 1 µM, first compound 0.0316 µM
[20] = second compound 1 µM, first compound 0.1 µM
[21] = second compound 1 µM, first compound 0.316 µM
[22] = second compound 1 µM, first compound 1 µM
[23] = second compound 1 µM, first compound 3.16 µM
[24] = second compound 1 µM, first compound 10 µM
[25] = second compound 3.16 µM, first compound 0.0316 µM
[26] = second compound 3.16 µM, first compound 0.1 µM
[27] = second compound 3.16 µM, first compound 0.316 µM
[28] = second compound 3.16 µM, first compound 1 µM
[29] = second compound 3.16 µM, first compound 3.16 µM
[30] = second compound 3.16 µM, first compound 10 µM
[31] = second compound 10 µM, first compound 0.0316 µM
[32] = second compound 10 µM, first compound 0.1 µM
[33] = second compound 10 µM, first compound 0.316 µM
[34] = second compound 10 µM, first compound 1 µM
[35] = second compound 10 µM, first compound 3.16 µM
[36] = second compound 10 µM, first compound 10 µM
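Further: spheroids exposed to compounds for seven days before reading.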
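Wherever viability, T/C is given: percent viability relative to DMSO vehicle control taken as 100%.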

For `C=CCn1c(=O)c2cnc(Nc3ccc(N4CCN(C)CC4)cc3)nc2n1-c1cccc(C(C)(C)O)n1` + CN(C)c1ccc(Nc2c3ccc(NC(=O)CCN4CCCC4)cc3nc3cc(NC(=O)CCN4CCCC4)ccc23)cc1, the IC50 (second compound 0.0316 µM) was 459 nM, the IC50 (second compound 0.1 µM) was 682 nM and the IC50 (second compound 0.316 µM) was 489 nM. The IC50 (second compound 1 µM) was 548 nM, the IC50 (second compound 3.16 µM) was 601 nM and the IC50 (second compound 10 µM) was 1710 nM. The viability, T/C [1] was 109%, the viability, T/C [2] was 123% and the viability, T/C [3] was 56.4%. The viability, T/C [4] was 37.7%, the viability, T/C [5] was 40.3% and the viability, T/C [6] was 31.5%. The viability, T/C [7] was 106%, the viability, T/C [8] was 96.1% and the viability, T/C [9] was 61.5%. For the same molecule, the viability, T/C [10] was 47.3%, the viability, T/C [11] was 34.2% and the viability, T/C [12] was 37.5%. For the same molecule, the viability, T/C [13] was 128%, the viability, T/C [14] was 95.1% and the viability, T/C [15] was 57.1%. The viability, T/C [16] was 38.4%, the viability, T/C [17] was 34.9% and the viability, T/C [18] was 39.5%. For the same molecule, the viability, T/C [19] was 95.3%, the viability, T/C [20] was 77.2% and the viability, T/C [21] was 62.3%. The viability, T/C [22] was 35.4%, the viability, T/C [23] was 39.6% and the viability, T/C [24] was 34.2%. For the same molecule, the viability, T/C [25] was 99.7%, the viability, T/C [26] was 87.2% and the viability, T/C [27] was 56.7%. For the same molecule, the viability, T/C [28] was 42%, the viability, T/C [29] was 48.2% and the viability, T/C [30] was 42.6%. The viability, T/C [31] was 95%, the viability, T/C [32] was 80% and the viability, T/C [33] was 62.3%. The viability, T/C [34] was 45.5%, the viability, T/C [35] was 56.3% and the viability, T/C [36] was 45.1%.

Work on `O=C(NO)c1cnc(N2CCN(S(=O)(=O)c3ccc4ccccc4c3)CC2)nc1` + CN(C)c1ccc(Nc2c3ccc(NC(=O)CCN4CCCC4)cc3nc3cc(NC(=O)CCN4CCCC4)ccc23)cc1 yielded an IC50 (second compound 0.0316 µM) of 792 nM, an IC50 (second compound 0.1 µM) of 944 nM and an IC50 (second compound 0.316 µM) of 838 nM. The IC50 (second compound 1 µM) was 856 nM, the IC50 (second compound 3.16 µM) was 566 nM and the IC50 (second compound 10 µM) was 1110 nM. It also gave a viability, T/C [1] of 93.7%, a viability, T/C [2] of 115% and a viability, T/C [3] of 79.9%. For the same molecule, the viability, T/C [4] was 37.4%, the viability, T/C [5] was 29.4% and the viability, T/C [6] was 1.05%. For the same molecule, the viability, T/C [7] was 100%, the viability, T/C [8] was 101% and the viability, T/C [9] was 89.8%. For the same molecule, the viability, T/C [10] was 38.5%, the viability, T/C [11] was 32.1% and the viability, T/C [12] was 1.23%. It also gave a viability, T/C [13] of 98%, a viability, T/C [14] of 111% and a viability, T/C [15] of 67.4%. It also gave a viability, T/C [16] of 37.4%, a viability, T/C [17] of 37.1% and a viability, T/C [18] of 1.09%. It also gave a viability, T/C [19] of 92.5%, a viability, T/C [20] of 92.9% and a viability, T/C [21] of 66.8%. It also gave a viability, T/C [22] of 38.1%, a viability, T/C [23] of 34% and a viability, T/C [24] of 1.34%. It also gave a viability, T/C [25] of 87.6%, a viability, T/C [26] of 94.6% and a viability, T/C [27] of 54.5%. For the same molecule, the viability, T/C [28] was 30.7%, the viability, T/C [29] was 36.1% and the viability, T/C [30] was 1.79%. For the same molecule, the viability, T/C [31] was 89.6%, the viability, T/C [32] was 88.2% and the viability, T/C [33] was 72.2%. It also gave a viability, T/C [34] of 38.4%, a viability, T/C [35] of 41.3% and a viability, T/C [36] of 1.96%.

`CC1COCCN1c1cc(C2(O)CC3CCC(C2)O3)c2cnn(-c3ccn[nH]3)c2n1` (stereo unspecified) + Cc1cnc(CNC(=O)c2c(=O)c3ccc(N4CCCN(C)CC4)nc3n3c2sc2ccccc23)cn1 showed an IC50 (second compound 0.0316 µM) greater than 10000 nM, an IC50 (second compound 0.1 µM) of 31.6 nM and an IC50 (second compound 0.316 µM) greater than 10000 nM. It also gave an IC50 (second compound 1 µM) greater than 10000 nM, an IC50 (second compound 3.16 µM) of 31.6 nM and an IC50 (second compound 10 µM) of 31.6 nM. For the same molecule, the viability, T/C [1] was 64.2%, the viability, T/C [2] was 43.7% and the viability, T/C [3] was 43.1%. It also gave a viability, T/C [4] of 61.8%, a viability, T/C [5] of 80.2% and a viability, T/C [6] of 82.9%. For the same molecule, the viability, T/C [7] was 67.7%, the viability, T/C [8] was 51% and the viability, T/C [9] was 35.3%. It also gave a viability, T/C [10] of 49.2%, a viability, T/C [11] of 86.7% and a viability, T/C [12] of 90.4%. It also gave a viability, T/C [13] of 74.2%, a viability, T/C [14] of 61.2% and a viability, T/C [15] of 47.8%. For the same molecule, the viability, T/C [16] was 47.4%, the viability, T/C [17] was 85.5% and the viability, T/C [18] was 81.9%. The viability, T/C [19] was 70.1%, the viability, T/C [20] was 63.9% and the viability, T/C [21] was 44.1%. The viability, T/C [22] was 53.6%, the viability, T/C [23] was 74.9% and the viability, T/C [24] was 85.4%. It also gave a viability, T/C [25] of 59.7%, a viability, T/C [26] of 63.5% and a viability, T/C [27] of 42.2%. The viability, T/C [28] was 46.2%, the viability, T/C [29] was 75.2% and the viability, T/C [30] was 76%. For the same molecule, the viability, T/C [31] was 61.4%, the viability, T/C [32] was 62.4% and the viability, T/C [33] was 45.2%. For the same molecule, the viability, T/C [34] was 36.8%, the viability, T/C [35] was 68.6% and the viability, T/C [36] was 78.5%.
